Numbered stars: 1 amine (or outer) side, 2 acyl side, 3 side chain; on linkers, the order of the positions; unused ones are H or OH. Square brackets hold non-standard residues; d marks the D form. Peptide text beside a SMILES is read from it. ξ: configuration not given here. X1 = O=C([C@H]1CCC[C@@H]1N[*:1])[*:2]; X2 = O=C([C@H]1CNC[C@@H]1N[*:1])[*:2]; ξβ3hY = NC(CC(=O)O)Cc1ccc(O)cc1; β3hN = NC(=O)C[C@H](N)CC(=O)O; ξβ3hQ = NC(=O)CCC(N)CC(=O)O; ξβ3hD = NC(CC(=O)O)CC(=O)O; ξβ3hN = NC(=O)CC(N)CC(=O)O; ξβ3hL = CC(C)CC(N)CC(=O)O; ξβ3hK = NCCCCC(N)CC(=O)O; ξβ3hT = CC(O)C(N)CC(=O)O; ξβ3hV = CC(C)C(N)CC(=O)O; ξβ3hS = NC(CO)CC(=O)O; βAla = NCCC(=O)O

The target of experiment [1] is T1, Vasoactive intestinal polypeptide receptor 1 (Homo sapiens, UniProt P32241).
T1 sequence (P32241 whole entry): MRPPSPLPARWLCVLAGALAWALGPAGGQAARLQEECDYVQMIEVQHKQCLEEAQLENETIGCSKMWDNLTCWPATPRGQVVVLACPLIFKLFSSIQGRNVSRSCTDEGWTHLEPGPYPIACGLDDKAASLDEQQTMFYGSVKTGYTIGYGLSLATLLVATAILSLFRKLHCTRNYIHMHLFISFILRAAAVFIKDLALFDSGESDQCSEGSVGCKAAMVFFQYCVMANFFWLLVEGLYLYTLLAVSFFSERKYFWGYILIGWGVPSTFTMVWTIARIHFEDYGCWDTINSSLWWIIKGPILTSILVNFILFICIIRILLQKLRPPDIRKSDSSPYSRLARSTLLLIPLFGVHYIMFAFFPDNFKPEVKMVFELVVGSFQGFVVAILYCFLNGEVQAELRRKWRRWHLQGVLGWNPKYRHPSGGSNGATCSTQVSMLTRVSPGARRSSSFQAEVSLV
In words: Agonist activity at human VIPR1 expressed in CHOK1 cells assessed as intracellular cAMP accumulation after 60 mins by PathHunter assay. Type of experiment: functional, cell-based. (Cyclic AMP is a second messenger, typically raised through Gs and lowered through Gi signalling.)

Experiment [2] has as its target T2, Vasoactive intestinal polypeptide receptor 2 (Homo sapiens, UniProt P41587).
T2 sequence (P41587 whole entry): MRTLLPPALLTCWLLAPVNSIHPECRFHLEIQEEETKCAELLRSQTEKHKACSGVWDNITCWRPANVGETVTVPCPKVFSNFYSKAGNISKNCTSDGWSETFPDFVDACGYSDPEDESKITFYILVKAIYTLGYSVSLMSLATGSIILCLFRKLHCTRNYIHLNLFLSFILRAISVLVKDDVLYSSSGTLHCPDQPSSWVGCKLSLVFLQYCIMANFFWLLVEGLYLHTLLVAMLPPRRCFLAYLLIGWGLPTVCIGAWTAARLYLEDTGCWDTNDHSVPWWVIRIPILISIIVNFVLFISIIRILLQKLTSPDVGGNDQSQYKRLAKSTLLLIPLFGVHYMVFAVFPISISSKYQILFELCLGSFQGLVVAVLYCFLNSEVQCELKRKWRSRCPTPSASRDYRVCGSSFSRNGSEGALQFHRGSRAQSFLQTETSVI
Put plainly: Agonist activity at human VIPR2 expressed in CHOK1 cells assessed as intracellular cAMP accumulation after 60 mins by PathHunter assay. The class given is functional, cell-based.

By EC50 is commonly meant the concentration at which the effect is half-maximal. Consider `CC[C@H](C)[C@H](NC(=O)[C@H](C)NC(=O)[C@H](CC(N)=O)NC(=O)CC(CC(C)C)NC(=O)[C@H](Cc1ccc(O)cc1)NC(=O)[C@H](CCCCN)NC(=O)[C@H](CCCCN)NC(=O)CC(NC(=O)[C@H](C)NC(=O)[C@H](CC(C)C)NC(=O)[C@H](CCC(N)=O)NC(=O)CC(CCCCN)NC(=O)[C@H](CCCNC(=N)N)NC(=O)[C@H](CC(C)C)NC(=O)[C@H](CCCNC(=N)N)NC(=O)CC(NC(=O)[C@H](Cc1ccc(O)cc1)NC(=O)[C@H](CC(N)=O)NC(=O)[C@H](CC(=O)O)NC(=O)[C@@H](NC(=O)[C@H](Cc1ccccc1)NC(=O)[C@@H](NC(=O)[C@H](C)NC(=O)[C@H](CC(=O)O)NC(=O)[C@H]1CCC[C@@H]1NC(=O)[C@@H](N)Cc1cnc[nH]1)C(C)C)[C@@H](C)O)C(C)O)C(C)C)C(=O)NC(CC(=O)N[C@@H](CC(N)=O)C(=O)O)CC(C)C` (stereo partly drawn) (H-H[X1]DAVFTDNY[ξβ3hT]RLR[ξβ3hK]QLA[ξβ3hV]KKY[ξβ3hL]NAI[ξβ3hL]N-OH), for which the results for the 50% effective concentration (EC50) in experiment [1] and in experiment [2] were 5.66 nM and 4900 nM, respectively.
The like results for `CC[C@H](C)[C@H](NC(=O)[C@H](C)NC(=O)[C@H](CC(N)=O)NC(=O)CC(CC(C)C)NC(=O)[C@H](Cc1ccc(O)cc1)NC(=O)[C@H](CCCCN)NC(=O)[C@H](CCCCN)NC(=O)CC(NC(=O)[C@H](C)NC(=O)[C@H](CC(C)C)NC(=O)[C@H](CCC(N)=O)NC(=O)CC(CCCCN)NC(=O)[C@H](CCCNC(=N)N)NC(=O)[C@H](CC(C)C)NC(=O)[C@H](CCCNC(=N)N)NC(=O)CC(NC(=O)[C@H](Cc1ccc(O)cc1)NC(=O)[C@H](CC(N)=O)NC(=O)[C@H](CC(=O)O)NC(=O)[C@@H](NC(=O)[C@H](Cc1ccccc1)NC(=O)CC(NC(=O)[C@H](C)NC(=O)[C@H](CC(=O)O)NC(=O)[C@H]1CCC[C@@H]1NC(=O)[C@@H](N)Cc1cnc[nH]1)C(C)C)[C@@H](C)O)C(C)O)C(C)C)C(=O)NC(CC(=O)N[C@@H](CC(N)=O)C(=O)O)CC(C)C` (stereo partly drawn) (H-H[X1]DA[ξβ3hV]FTDNY[ξβ3hT]RLR[ξβ3hK]QLA[ξβ3hV]KKY[ξβ3hL]NAI[ξβ3hL]N-OH) were, in that order, 4.43 nM and 262 nM.
On to `CC(=O)N[C@@H](Cc1cnc[nH]1)C(=O)N[C@@H](CO)C(=O)N[C@@H](CC(=O)O)C(=O)N[C@@H](C)C(=O)N[C@H](C(=O)N[C@@H](Cc1ccccc1)C(=O)N[C@H](C(=O)N[C@@H](CCC(=O)O)C(=O)N[C@@H](CC(N)=O)C(=O)N[C@@H](Cc1ccc(O)cc1)C(=O)N[C@H](C(=O)N[C@@H](CCCCN)C(=O)N[C@@H](CC(C)C)C(=O)N[C@@H](CCCNC(=N)N)C(=O)N[C@@H](CCCCN)C(=O)N[C@@H](CCC(N)=O)C(=O)N[C@H]1CCC[C@@H]1C(=O)N[C@@H](C)C(=O)N[C@@H](C)C(=O)N[C@H]1CNC[C@@H]1C(=O)N[C@@H](CCCCN)C(=O)N[C@@H](Cc1ccc(O)cc1)C(=O)N[C@@H](CC(C)C)C(=O)N[C@H]1CCC[C@@H]1C(=O)N[C@@H](CC(=O)O)C(=O)N[C@@H](CC(C)C)C(=O)NC(CCCCN)CC(=O)N[C@@H](CCCCN)C(=O)NCC(=O)NCC(=O)N[C@H](C(=O)O)[C@@H](C)O)[C@@H](C)O)[C@@H](C)O)C(C)C` (stereo partly drawn) (Ac-HSDAVFTENYTKLRKQ[X1]AA[X2]KYL[X1]DL[ξβ3hK]KGGT-OH), for which the concentration for a half-maximal effect (EC50) in experiment [1] turned out to be 218 nM; in experiment [2], 0.18 nM.
The like results for `CC(C)C[C@H](NC(=O)[C@H](CC(=O)O)NC(=O)[C@H](CC(N)=O)NC(=O)[C@H]1CCC[C@@H]1NC(=O)[C@H](Cc1ccc(O)cc1)NC(=O)[C@H](CCCCN)NC(=O)[C@H]1CNC[C@@H]1NC(=O)[C@H](C)NC(=O)[C@H](C)NC(=O)[C@H](CC(C)C)NC(=O)[C@H](CCC(N)=O)NC(=O)[C@H](CCCCN)NC(=O)[C@H](CCCNC(=N)N)NC(=O)[C@H](CC(C)C)NC(=O)[C@H](CCCCN)NC(=O)[C@@H](NC(=O)CC(Cc1ccc(O)cc1)NC(=O)CC(CC(N)=O)NC(=O)[C@H](CCC(=O)O)NC(=O)[C@@H](NC(=O)[C@H](Cc1ccccc1)NC(=O)[C@H]1CCC[C@@H]1NC(=O)[C@H](C)NC(=O)[C@H](CC(=O)O)NC(=O)[C@H]1CCC[C@@H]1NC(=O)[C@@H](N)Cc1cnc[nH]1)[C@@H](C)O)[C@@H](C)O)C(=O)NC(CCCCN)CC(=O)N[C@@H](CCCCN)C(=O)NCC(=O)NCCC(=O)N[C@H](C(=O)O)[C@@H](C)O` (stereo partly drawn) (H-H[X1]DA[X1]FTE[ξβ3hN][ξβ3hY]TKLRKQLAA[X2]KY[X1]NDL[ξβ3hK]KG[βAla]T-OH) were, in that order, 932 nM and 95.6 nM.
The like results for `CC[C@H](C)[C@H](NC(=O)[C@H](C)NC(=O)[C@H](CC(N)=O)NC(=O)CC(CC(C)C)NC(=O)[C@H](Cc1ccc(O)cc1)NC(=O)[C@H](CCCCN)NC(=O)[C@H](CCCCN)NC(=O)CC(NC(=O)[C@H](C)NC(=O)[C@H](CC(C)C)NC(=O)[C@H](CCC(N)=O)NC(=O)CC(CCCCN)NC(=O)[C@H](CCCNC(=N)N)NC(=O)[C@H](CC(C)C)NC(=O)[C@H](CCCNC(=N)N)NC(=O)CC(NC(=O)[C@H](Cc1ccc(O)cc1)NC(=O)CC(CC(N)=O)NC(=O)[C@H](CC(=O)O)NC(=O)[C@@H](NC(=O)[C@H](Cc1ccccc1)NC(=O)CC(NC(=O)[C@H](C)NC(=O)[C@H](CC(=O)O)NC(=O)[C@@H](Cc1ccccc1)NC(=O)[C@@H](N)Cc1cnc[nH]1)C(C)C)[C@@H](C)O)C(C)O)C(C)C)C(=O)NC(CC(=O)N[C@@H](CC(N)=O)C(=O)O)CC(C)C` (stereo partly specified) were, in that order, over 1000 nM and 989 nM.
For the compound `CC[C@H](C)[C@H](NC(=O)[C@H](C)NC(=O)[C@H](CC(N)=O)NC(=O)CC(CC(C)C)NC(=O)[C@H](Cc1ccc(O)cc1)NC(=O)[C@H](CCCCN)NC(=O)[C@H](CCCCN)NC(=O)CC(NC(=O)[C@H](C)NC(=O)[C@H](CC(C)C)NC(=O)[C@H](CCC(N)=O)NC(=O)CC(CCCCN)NC(=O)[C@H](CCCNC(=N)N)NC(=O)[C@H](CC(C)C)NC(=O)[C@H](CCCNC(=N)N)NC(=O)CC(NC(=O)[C@H](Cc1ccc(O)cc1)NC(=O)[C@H](CC(N)=O)NC(=O)[C@H](CC(=O)O)NC(=O)CC(NC(=O)[C@H](Cc1ccccc1)NC(=O)[C@@H](NC(=O)[C@H](C)NC(=O)CC(CC(=O)O)NC(=O)[C@H](CO)NC(=O)[C@@H](N)Cc1cnc[nH]1)C(C)C)C(C)O)C(C)O)C(C)C)C(=O)NC(CC(=O)N[C@@H](CC(N)=O)C(=O)O)CC(C)C` (stereo partly drawn) (H-HS[ξβ3hD]AVF[ξβ3hT]DNY[ξβ3hT]RLR[ξβ3hK]QLA[ξβ3hV]KKY[ξβ3hL]NAI[ξβ3hL]N-OH), the EC50 in experiment [1] and in experiment [2] was over 1000 nM throughout.
Take `CC(=O)N[C@@H](Cc1cnc[nH]1)C(=O)N[C@H]1CCC[C@@H]1C(=O)N[C@@H](CC(=O)O)C(=O)N[C@@H](C)C(=O)NC(CC(=O)N[C@@H](Cc1ccccc1)C(=O)N[C@H](C(=O)N[C@@H](CCC(=O)O)C(=O)N[C@@H](CC(N)=O)CC(=O)N[C@@H](Cc1ccc(O)cc1)C(=O)N[C@H](C(=O)N[C@@H](CCCCN)C(=O)N[C@@H](CC(C)C)C(=O)N[C@@H](CCCNC(=N)N)C(=O)N[C@@H](CCCCN)C(=O)NC(CCC(N)=O)CC(=O)N[C@@H](CC(C)C)C(=O)N[C@@H](C)C(=O)N[C@@H](C)C(=O)N[C@H]1CNC[C@@H]1C(=O)N[C@@H](CCCCN)C(=O)N[C@@H](Cc1ccc(O)cc1)C(=O)N[C@H]1CCC[C@@H]1C(=O)N[C@@H](CC(N)=O)C(=O)N[C@@H](CC(=O)O)C(=O)N[C@@H](CC(C)C)C(=O)NC(CCCCN)CC(=O)N[C@@H](CCCCN)C(=O)NCC(=O)NCCC(=O)N[C@H](C(=O)O)[C@@H](C)O)[C@@H](C)O)[C@@H](C)O)C(C)C` (stereo partly drawn) (Ac-H[X1]DA[ξβ3hV]FTE[β3hN]YTKLRK[ξβ3hQ]LAA[X2]KY[X1]NDL[ξβ3hK]KG[βAla]T-OH): the results for the EC50 in experiment [1] and in experiment [2] were 1530 nM and 3.52 nM, respectively.
The like results for `CC[C@H](C)[C@H](NC(=O)[C@H](C)NC(=O)[C@H](CC(N)=O)NC(=O)CC(CC(C)C)NC(=O)[C@H](Cc1ccc(O)cc1)NC(=O)[C@H](CCCCN)NC(=O)[C@H](CCCCN)NC(=O)CC(NC(=O)[C@H](C)NC(=O)[C@H](CC(C)C)NC(=O)[C@H](CCC(N)=O)NC(=O)CC(CCCCN)NC(=O)[C@H](CCCNC(=N)N)NC(=O)[C@H](CC(C)C)NC(=O)[C@H](CCCNC(=N)N)NC(=O)CC(NC(=O)[C@H](Cc1ccc(O)cc1)NC(=O)[C@H](CC(N)=O)NC(=O)[C@H](CC(=O)O)NC(=O)[C@@H](NC(=O)[C@H](Cc1ccccc1)NC(=O)CC(NC(=O)[C@H](C)NC(=O)[C@H](CC(=O)O)NC(=O)CC(CO)NC(=O)[C@@H](N)Cc1cnc[nH]1)C(C)C)[C@@H](C)O)C(C)O)C(C)C)C(=O)NC(CC(=O)N[C@@H](CC(N)=O)C(=O)O)CC(C)C` (stereo partly drawn) (H-H[ξβ3hS]DA[ξβ3hV]FTDNY[ξβ3hT]RLR[ξβ3hK]QLA[ξβ3hV]KKY[ξβ3hL]NAI[ξβ3hL]N-OH) were, in that order, 64.4 nM and 716 nM.

For the origin of these results see ChEMBL document CHEMBL4257221, “Peptides comprising non-natural amino acids and methods of making and using the same” (2016).
